# In patent US9855270B2, “Methods and compositions for modulating estrogen receptor mutants” (priority 2014, dated 2018):
# Read-outs that look alike come from different tables or passages of the source.
# Assays:
# Assay type in all cases: cell-based
# Set-up in all cases: Percent inhibition compared to vehicle: concentration or dose not given beside the values
# [1] = test system: MCF-7 cells (negative control); assay: MCF-7 Stable Cell Line Viability (UbC HA-ER-α series)
# Description: (§1) MCF-7 Mutant ER-α Stable Cell Line Generation: MCF-7 cells stably expressing wild-type or ER-α mutants were generated by subcloning ESR1 wild-type and mutant cDNAs containing an amino terminal hemagglutinin tag into pCDH-EF1-MCS-(PGK-Puro) (referred to as EF1 HA-ER-α) and pCDH-UbC-MCS-EF1-Hygro (referred to as UbC HA-ER-α) (System Biosciences). The resulting plasmids, in addition to an empty vector negative control, were subsequently cotransfected into HEK293T cells with the pPACKH1 packaging plasmid mix (System Biosciences) according to the manufacturer's protocol. Four days post transfection lentiviral particles were purified from the cell medium, tiered and stored at −80° C. MCF-7 cells were transduced with the purified viral particles and stable cell lines were selected by growth in RPMI containing 10% FBS plus 1 μG/mL puromycin or 200 μG/mL hygromycin for pCDH-EF1-MCS-(PGK-Puro) and pCDH-UbC-MCS-EF1-Hygro, respectively.
# (§2) MCF-7 Stable Cell Line Viability: MCF-7 cells were enumerated with a hemacytometer adjusted to a concentration of 40,000 cells per mL in Phenol Free RPMI containing 10% CSS with NEAA and Sodium Pyruvate. 16 microliters of the cell suspension was added to each well of a 384 well tissue culture treated white clear bottom polystyrene plate (Corning) using a Matrix 16 channel electronic pipette. The cells were incubated overnight to allow the cells to adhere. The following day, 16 microliters of Phenol Free RPMI containing 10% CSS with NEAA and Sodium Pyruvate was added to the wells of one plate, followed by 16 μL of CellTiter-Glo (Promega, Madison Wis.) luminescent cell viability reagent using a Matrix 16 channel electronic pipette. […] The “average” of the relative luminescence units (RLUs) of the wells are considered to be the baseline value at time=zero. In addition, a 10 point, 1:5 serial dilution in DMSO (Sigma-Aldrich) was performed using Matrix 12 channel electronic pipette, including DMSO only as […]. 4 μL of each dilution was then added to 196 μL of RPMI containing 10% CSS with NEAA and Sodium Pyruvate. 16 μL of medium containing compound was added to the cells at a final concentration ranging from 10 μM to 5 pM. Compound dilution in media and subsequent addition to cells were carried out using Matrix 12 channel electronic pipettes. After 5 day compound exposure, 16 μL of CellTiter-Glo (Promega, Madison Wis.) luminescent cell viability reagent was added to the cells using a Matrix 16 channel electronic pipette. CellTiter-Glo added to 32 μL of medium without cells was used to obtain a background value. […] The relative luminescence units (RLUs) of each well were measured, and relative proliferation (fold) of each sample was determined as follows: (RLU sample−RLU background)/(RLU at T=0)=relative proliferation
# (§3) The UbC promoter is reported by the manufacturer (System Biosciences) to express low to moderate RNA levels while the EF1 promoter expresses high levels (System Biosciences).
# [2] = test system: MCF-7 cells stably expressing UbC HA-ER-α wild-type; assay: as above; settings: for Percent inhibition compared to vehicle: 5-Day Incubation; for Efficacy (Emax): Day 5 relative to Day 0
# Description: as §1, §2, §3
# [3] = test system: MCF-7 cells stably expressing EF1 HA-ER-α wild-type; assay: MCF-7 Stable Cell Line Viability (EF1 HA-ER-α series); settings: for Percent inhibition compared to vehicle: 5-Day Incubation; for Efficacy (Emax): Day 5 relative to Day 0
# Description: as §1, §2, §3
# [4] = test system: MCF-7 cells transduced with an empty EF1 lentiviral vector (negative control); assay: as above; settings: for EC50: read-out: Potency (EC50; nM); for Percent inhibition compared to vehicle: 5-Day Incubation; for Efficacy (Emax): Day 5 relative to Day 0
# Description: as §1, §2, §3
# [5] = Homo sapiens, MCF7, Receptor None (MCF-7 negative control), Agonist Mode, −E2, read-out: Potency (EC50; nM)
# [6] = Receptor None (MCF-7 negative control), Agonist Mode, −E2, 5-Day Incubation
# [7] = Receptor None (MCF-7 negative control), Agonist Mode, −E2, Day 5 relative to Day 0
# [8] = Receptor None (MCF-7 negative control), Antagonist Mode, +E2, 5-Day Incubation
# [9] = Receptor None (MCF-7 negative control), Antagonist Mode, +E2, Day 5 relative to Day 0
# [10] = UbC HA-ER-α Wild-type, Agonist Mode, −E2
# [11] = UbC HA-ER-α Wild-type, Antagonist Mode, +E2
# [12] = EF1 HA-ER-α Wild-type, Agonist Mode, −E2
# [13] = EF1 HA-ER-α Wild-type, Antagonist Mode, +E2
# [14] = Homo sapiens, MCF7, Receptor None (empty EF1 lentiviral vector), Agonist Mode, −E2
# [15] = Receptor None (empty EF1 lentiviral vector), Agonist Mode, −E2
# [16] = Receptor None (empty EF1 lentiviral vector), Antagonist Mode, +E2
SMILES,"EC50 [1, 5] [nM]","Percent inhibition compared to vehicle [1, 6] [%]","Efficacy (Emax) [1, 7]","Percent inhibition compared to vehicle [1, 8] [%]","Efficacy (Emax) [1, 9]","Percent inhibition compared to vehicle [2, 10] [%]","Efficacy (Emax) [2, 10]","Percent inhibition compared to vehicle [2, 11] [%]","Efficacy (Emax) [2, 11]","Percent inhibition compared to vehicle [3, 12] [%]","Efficacy (Emax) [3, 12]","Percent inhibition compared to vehicle [3, 13] [%]","Efficacy (Emax) [3, 13]","EC50 [4, 14] [nM]","Efficacy (Emax) [4, 15]","Percent inhibition compared to vehicle [4, 16] [%]","Efficacy (Emax) [4, 16]",other results
"CC/C(=C(/c1ccc(/C=C/C(=O)O)cc1)c1ccc2[nH]ncc2c1)c1ccc(F)cc1Cl [Compound 1-3, (E)-3-(4-((E)-2-(2-chloro-4-fluorophenyl)-1-(1H-indazol-5-yl)but-1-en-1-yl)phenyl)acrylic acid]",0.603 ± 0.74,30,1.23 ± 0.88,70,0.97 ± 0.01,37,1.17 ± 0.17,76,1.16 ± 0.03,48,2.97 ± 0.50,59,2.78 ± 0.26,0.828 ± 0.347,1.03 ± 0.14,75,1.01 ± 0.12,"EC50 ([1]; Homo sapiens, MCF7, Receptor None (MCF-7 negative control), Antagonist Mode, +E2, read-out: Potency (EC50; nM)): 4.84 ± 4.42 nM; EC50 ([2]; Homo sapiens, MCF7, UbC HA-ER-α Wild-type, Agonist Mode, −E2, read-out: Potency (EC50; nM)): 0.58 ± 0.386 nM; EC50 ([2]; Homo sapiens, MCF7, UbC HA-ER-α Wild-type, Antagonist Mode, +E2, read-out: Potency (EC50; nM)): 5.5 ± 6.28 nM; EC50 ([3]; Homo sapiens, MCF7, EF1 HA-ER-α Wild-type, Agonist Mode, −E2, read-out: Potency (EC50; nM)): 2.84 ± 1.36 nM; EC50 ([3]; Homo sapiens, MCF7, EF1 HA-ER-α Wild-type, Antagonist Mode, +E2, read-out: Potency (EC50; nM)): 28 ± 10.3 nM; EC50 ([4]; Homo sapiens, MCF7, Receptor None (empty EF1 lentiviral vector), Antagonist Mode, +E2): 9.27 ± 3.93 nM; Percent inhibition compared to vehicle [4, 15]: 54%"
CCC(=C(c1ccc(O)cc1)c1ccc(OCCN(C)C)cc1)c1ccccc1 [4-Hydroxytamoxifen],,19,1.42 ± 0.43,58,1.34 ± 0.07,14,1.58 ± 0.16,68,1.57 ± 0.08,30,3.99 ± 0.38,40,4.05 ± 0.36,,1.49 ± 0.06,60,1.60 ± 0.08,"EC50 ([1]; Receptor None (MCF-7 negative control), Agonist Mode, −E2, read-out: Potency (EC50; nM)): 263 ± 525 nM; EC50 ([1]; Receptor None (MCF-7 negative control), Antagonist Mode, +E2, read-out: Potency (EC50; nM)): 2.47 ± 1.78 nM; EC50 ([2]; UbC HA-ER-α Wild-type, Agonist Mode, −E2, read-out: Potency (EC50; nM)): 0.626 ± 0.528 nM; EC50 ([2]; UbC HA-ER-α Wild-type, Antagonist Mode, +E2, read-out: Potency (EC50; nM)): 2.95 ± 2.51 nM; EC50 ([3]; EF1 HA-ER-α Wild-type, Agonist Mode, −E2, read-out: Potency (EC50; nM)): 0.186 ± 0.04 nM; EC50 ([3]; EF1 HA-ER-α Wild-type, Antagonist Mode, +E2, read-out: Potency (EC50; nM)): 5.16 ± 0.137 nM; EC50 ([3]; EF1 HA-ER-α Wild-type, Antagonist Mode, −E2 (Table 27), read-out: Potency (EC50; nM)): 0.186 ± 0.04 nM; EC50 [4, 15]: 0.531 ± 0.381 nM; EC50 [4, 16]: 2.32 ± 0.599 nM; EC50 ([4]; Receptor None (empty EF1 lentiviral vector), Antagonist Mode, −E2 (Table 27)): 0.531 ± 0.381 nM"
C[C@]12CC[C@@H]3c4ccc(O)cc4CC[C@H]3[C@@H]1CC[C@@H]2O [17β-Estradiol],0.279 ± 0.518,,4.12 ± 0.88,,,,4.43 ± 0.88,,5.12 ± 1.52,,7.35 ± 1.28,,6.67 ± 1.25,0.02 ± 0.001,,,4.24 ± 0.90,"EC50 ([2]; Homo sapiens, MCF7, read-out: Potency (EC50; nM), UbC HA-ER-α Wild-type, Agonist Mode, −E2): 0.101 ± 0.16 nM; EC50 ([3]; Homo sapiens, MCF7, read-out: Potency (EC50; nM), EF1 HA-ER-α Wild-type, Agonist Mode, −E2): 0.518 ± 0.699 nM; EC50 ([3]; Homo sapiens, MCF7, read-out: Potency (EC50; nM), EF1 HA-ER-α Wild-type, Antagonist Mode, −E2 (Table 27)): 0.518 ± 0.699 nM; EC50 ([4]; Homo sapiens, MCF7, Receptor None (empty EF1 lentiviral vector), Antagonist Mode, −E2 (Table 27)): 0.02 ± 0.001 nM"
